Laboratory results published in US11981953B2, “Method to screen compounds for antifungal activity and pharmaceutical compositions and methods to treat fungal diseases by inhibiting spore germination” (WISCONSIN ALUMNI RESEARCH FOUNDATION, priority 2018, dated 2024).
Converted amounts (≈) assume the structure as drawn. Counter-ions that a name gives are not always drawn. Like-named read-outs stand apart in the source and are kept apart here.

Legend:
Type in all cases: cell-based
[1] = system: Cryptococcus neoformans (JEC21); assay: MIC/MFC experiments (EUCAST based), JEC21; conditions: 48 h; for MFC: Cryptococcus neoformans
Description: (§1) All minimum inhibitory concentration (MIC) experiments were based on EUCAST methodology. […] After 6-hour incubation, yeast cells were washed in 1×PBS and quantified using a hemocytometer. […] Cryptococcus neoformans cells were incubated for 2 days at 30° C. while Candida albicans strains were incubated for 2 days at 35° C. OD600 readings were used to assess the MIC values for each drug. To determine minimum fungicidal concentrations (MFC) values, 3 μL per well were plated on YPD and allowed to grow for 2 days.

[2] = system: Cryptococcus neoformans yeast replication; conditions: signal relative to negative control
Source text: (§2) To identify inhibitors of Cryptococcus neoformans spore germination, a high throughput screen was developed that utilizes a nanoluciferase construct to monitor whether spores germinate in the presence of inhibitor. Briefly a protein luciferase construct was created resulting in a low luciferase signal for non-germinated spores and a high signal from germinated and replicating cells. The screen was coupled with OD600 readings to monitor the ability of compounds to inhibit yeast replication. The examples focused on FDA-approved drugs, as these drugs have the potential of being repurposed into antifungal therapeutics. To determine whether any FDA-approved drugs were able to inhibit Cryptococcus neoformans spore germination and yeast replication, the aforementioned high throughput screen was performed on the L1300 Selleck FDA-Approved Drug Library containing an array of 1108 compounds. This library of compounds is available commercially from Selleck Chemicals, 14408 W Sylvanfield Drive, Houston, Tex. 77014, USA.
(§3) The screening was successful at identifying known antifungal drugs as inhibitors of yeast replication as indicated by an OD600 signal of less than 75% of the negative control (Table 2). For the purpose of these examples, antifungal drugs were defined as any FDA-approved drug used in the treatment of fungal infections. Of these 23 known antifungal drugs, only six (6) were identified as inhibitors of spore germination, indicated by a luciferase signal of less than 30% of the negative control.

[3] = system: Cryptococcus neoformans spores (JEC20 x JEC21); assay: Quantitative germination assay (microfluidic devices, cell size and shape); conditions: for Inhibition of spore germination: 16 hours; for Germicidal: plated on YPD after the 16-hour experiment; for Inhibition of spore germination, antifungal drugs: concentration not given, bifonazole and econazole nitrate tested outside the microfluidic device, imaged at 0 and 16 hours; for Spore escape from inhibition (words): yeast population increase = escape
Description: All germination assays are based on Barkal et al., 2016. Briefly, microfluidic devices were loaded with 1×10^5 spores, and at 0 hours, SD media with drug of interest, were added to the sample. Spores were allowed to germinated at 30° C. in a humidified chamber and cells were monitored every two (2) hours for 16 hours. Each assay was performed in two (2) individual wells with three (3) field of views acquired from each well. All images were analyzed as previously described based on cell shape and size. Population ratio of spores, intermediate, and yeast cells were determined. Error bars in plots are based on variation between all fields of view acquired. […] After the 16-hour experiment, samples were plated on YPD and allowed to grow at 30° C. to determine if drugs were completely germicidal or not based on lack of growth. If assays were unable to be performed in microfluidic devices, the […] spores were incubated in identical conditions outside of PDMS devices and only loaded into devices for image acquisition.

[4] = system: Cryptococcus neoformans (H99); assay: MIC/MFC experiments (EUCAST based), H99; conditions: 48 h; for MFC: Cryptococcus neoformans
Description: as §1

[5] = system: Aspergillus Fumigatus (AF293); assay: Aspergillus fumigatus MIC on conidia; conditions: for MIC: Aspergillus fumigatus; for Ability to inhibit Aspergillus fumigatus: testing performed on conidia
Description: Conidia at a final concentration of 2×10^4 cells were incubated in RPMI, 0.33 M MOPS, and 2% glucose at pH 7 at varying concentrations of inhibitors, with a final volume of 200 μL.

[6] = system: Cryptococcus neoformans spore germination; assay: High throughput nanoluciferase screen of spore germination (L1300 Selleck FDA-Approved Drug Library); conditions: signal relative to negative control
Source text: as §2, §3

[7] = system: Candida albicans (SC5314); assay: MIC/MFC experiments (EUCAST based), Candida albicans; conditions: SC5314, 48 h
Description: as §1

[8] = Table 5, yeast, 2 days at 30° C., OD600, read-out: MIC
[9] = Table 5, plated on YPD, 2 days, read-out: MFC
[10] = Table 3, other FDA-approved drugs
[11] = Table 5, conidia, lowest concentration with complete absence of germ tubes or hyphae, read-out: MIC
[12] = Table 5, 2 days at 35° C., OD600, read-out: MIC
[13] = Table 4, yeast, 2 days at 30° C., OD600, read-out: MIC
[14] = Table 4, plated on YPD, 2 days, read-out: MFC
[15] = Table 2, antifungal drugs, less than 75% = inhibitor of yeast replication
[16] = Table 4, conidia, lowest concentration with complete absence of germ tubes or hyphae, read-out: MIC
[17] = Table 2, antifungal drugs, less than 30% = inhibitor of germination
[18] = Table 4, 2 days at 35° C., OD600, read-out: MIC

Row | Structure (SMILES) | MIC [1, 8] | MFC [1, 9] | Replication Percent OD600 [2, 10] | Inhibition of spore germination ([3]; 25 μg/mL) | Germicidal ([3]; 25 μg/mL) | MIC [4, 8] | MFC [4, 9] | MIC [5, 11] | Ability to inhibit Aspergillus fumigatus [5] | Germination Percent Luciferase Signal [6, 10] | MIC [7, 12] | MFC [7, 9] | MIC [1, 13] | MFC [1, 14] | Inhibition of spore germination, antifungal drugs [3] | MIC [4, 13] | MFC [4, 14] | MIC [5, 16] | MIC [7, 18] | MFC [7, 14] | other results
1 | CCCCC(CC)CNC(=N)NC(=N)NCCCCCCNC(=N)NC(=N)NCC(CC)CCCC (stereo not shown) [Alexidine HCl] | < 0.78 µg/mL | < 0.78 µg/mL | 29.6% | completely inhibit spore germination | fully germicidal | < 0.78 µg/mL | < 0.78 µg/mL | < 0.78 µg/mL | extremely potent | 4.6% | < 0.78 µg/mL | < 0.78 µg/mL | – | – | – | – | – | – | – | – | –
2 | c1ccc(-c2ccc(C(c3ccccc3)n3ccnc3)cc2)cc1 (stereo not shown) [Bifonazole] | – | – | – | – | – | – | – | – | unable to inhibit | – | – | – | 6.25 µg/mL (≈ 20.1 µM) | 6.25 µg/mL (≈ 20.1 µM) | able to inhibit spore germination effectively | 6.25 µg/mL (≈ 20.1 µM) | > 100 µg/mL | > 100 µg/mL | > 100 µg/mL | > 100 µg/mL | Replication Percent OD600 [2, 15]: 33.4%; Spore escape from inhibition (words) [3]: spore escape apparent; Germination Percent Luciferase Signal [6, 17]: 13.6%
3 | CCN(CC)C(=S)SSC(=S)N(CC)CC [Disulfiram] | – | – | 65.6% | – | – | – | – | – | – | 22.7% | – | – | – | – | – | – | – | – | – | – | MIC [1]: 3.13 µg/mL (≈ 10.6 µM); MFC [1]: 3.13 µg/mL (≈ 10.6 µM); Stall in germination overall ([3]; 25 μg/mL): ~2 h; MIC [4]: 6.25 µg/mL (≈ 21.1 µM); MFC [4]: 6.25 µg/mL (≈ 21.1 µM); MIC [5]: 25 µg/mL (≈ 84.3 µM); MFC [7]: 12.5 µg/mL (≈ 42.2 µM); MIC [7]: 6.25 µg/mL (≈ 21.1 µM)
4 | Clc1ccc(COC(Cn2ccnc2)c2ccc(Cl)cc2Cl)cc1 (stereo not shown) [Econazole nitrate] | – | – | – | – | – | – | – | – | able to inhibit its growth | – | – | – | < 0.78 µg/mL | 6.25 µg/mL | able to inhibit spore germination effectively | < 0.78 µg/mL | 6.25 µg/mL | 3.13 µg/mL | 6.25 µg/mL | 12.5 µg/mL | Replication Percent OD600 [2, 15]: 33.1%; Germination Percent Luciferase Signal [6, 17]: 16.1%
5 | O=C(Nc1ccc([N+](=O)[O-])cc1Cl)c1cc(Cl)ccc1O [Niclosamide] | < 0.78 µg/mL | 1.56 µg/mL (≈ 4.77 µM) | 43.4% | completely inhibit germination | not fully germicidal | 1.56 µg/mL (≈ 4.77 µM) | > 100 µg/mL | > 100 µg/mL | – | 7.8% | > 100 µg/mL | > 100 µg/mL | – | – | – | – | – | – | – | – | –
6 | CCCCCCCCOc1ccccc1C(=O)Nc1ccc(C(=O)OCC[N+](C)(CC)CC)cc1 [Otilonium bromide] | 3.13 µg/mL | 3.13 µg/mL | 29.0% | completely inhibit spore germination | fully germicidal | 3.13 µg/mL | 3.13 µg/mL | 6.25 µg/mL | able to inhibit A. fumigatus | 6.9% | 3.13 µg/mL | 3.13 µg/mL | – | – | – | – | – | – | – | – | –
7 | N=C(N)c1ccc(OCCCCCOc2ccc(C(=N)N)cc2)cc1 [Pentamidine isethionate] | – | – | – | – | – | – | – | – | – | – | – | – | 1.56 µg/mL | 3.13 µg/mL | able to successfully inhibit spore germination | 6.25 µg/mL | 6.25 µg/mL | > 100 µg/mL | 50 µg/mL | 50 µg/mL | Spore escape from inhibition (words) [3]: none of the ˜10,000 spores showed inherent resistance and escape from inhibition
8 | CO[C@H]1C[C@@H]2CC[C@@H](C)[C@@](O)(O2)C(=O)C(=O)N2CCCC[C@H]2C(=O)O[C@H]([C@H](C)C[C@@H]2CC[C@@H](OC(=O)C(C)(CO)CO)[C@H](OC)C2)CC(=O)[C@H](C)/C=C(\C)[C@@H](O)[C@@H](OC)C(=O)[C@H](C)C[C@H](C)/C=C/C=C/C=C/1C [Temsirolimus] | 6.25 µg/mL (≈ 6.07 µM) | 6.25 µg/mL (≈ 6.07 µM) | 59.2% | partially inhibit germination | Neither temsirolimus nor disulfiram were germicidal | 6.25 µg/mL (≈ 6.07 µM) | 6.25 µg/mL (≈ 6.07 µM) | > 100 µg/mL | – | 21.3% | 1.56 µg/mL (≈ 1.51 µM) | 1.56 µg/mL (≈ 1.51 µM) | – | – | – | – | – | – | – | – | –
